The test system of the first test is HCV pseudoparticles (genotype 1a HCV E1 and E2 envelope, H77C isolate). In words: microbe, parasite or virus in culture. Particulars: Hepatitis C virus, Huh-7, 48 h, HCV pseudoparticles, Huh7 cells, luciferase 2 days after infection; average of duplicates. Format: cell-based.
As usually defined, the EC50 is the concentration that produces a half-maximal response. On to `CCc1cccc(NC(=O)C(=O)NC[C@H](NC(=O)c2ccc(Nc3nc(NC4(c5ccc(Cl)cc5)CC4)nc(OCC(F)(F)F)n3)cc2)C(=O)Cl)c1` [Compound 3744], for which the concentration giving a half-maximal response (EC50) worked out at 1.18 nM.
For the compound `O=C(NC[C@H](NC(=O)c1ccc(Nc2nc(NC3(c4ccc(Cl)cc4)CC3)nc(OCC(F)(F)F)n2)cc1)C(=O)O)C(=O)Nc1cccc(-c2ccccc2)c1` [Compound 3751], the EC50 stood at 0.14 nM.
The same measure, in the same setting: under `CC(C)c1cccc(NC(=O)C(=O)NC[C@H](NC(=O)c2ccc(Nc3nc(NC4(c5ccc(Cl)cc5)CC4)nc(OCC(F)(F)F)n3)cc2)C(=O)O)c1` [Compound 3758] stands 0.54 nM.
`O=C(NC[C@H](NC(=O)c1ccc(Nc2nc(NC3(c4ccc(Cl)cc4)CC3)nc(OCC(F)(F)F)n2)cc1)C(=O)O)C(=O)Nc1cccc(-c2ncc[nH]2)c1` [Compound 3765]: the EC50 came out at 0.68 nM.
The same measure, in the same setting: with `O=C(NC[C@H](NC(=O)c1ccc(Nc2nc(NC3(c4ccc(Cl)cc4)CC3)nc(OCC(F)(F)F)n2)cc1)C(=O)O)C(=O)Nc1cccc(S(=O)(=O)N2CCCCC2)c1` [Compound 3772] the figure was 7.42 nM; with `Cn1nnnc1-c1cccc(NC(=O)C(=O)NC[C@H](NC(=O)c2ccc(Nc3nc(NC4(c5ccc(Cl)cc5)CC4)nc(OCC(F)(F)F)n3)cc2)C(=O)Cl)c1` [Compound 3786], 0.55 nM.

Still in this test, the particulars now being: Hepatitis C virus, Huh-7, 48 h, read-out: Activity (EC50 class), HCV pseudoparticles, Huh7 cells, luciferase 2 days after infection; average of duplicates.
Turning to `CCc1cccc(NC(=O)C(=O)NC[C@H](NC(=O)c2ccc(Nc3nc(NC4(c5ccc(Cl)cc5)CC4)nc(OCC(F)(F)F)n3)cc2)C(=O)Cl)c1` [Compound 3744], the EC50 fell in the range of 0.01 to 10 nM.
Still for that read-out and setting: with `NC(=O)c1cccc(NC(=O)C(=O)NC[C@H](NC(=O)c2ccc(Nc3nc(NC4(c5ccc(Cl)cc5)CC4)nc(OCC(F)(F)F)n3)cc2)C(=O)Cl)c1` [Compound 3745] the figure was 0.01 to 10 nM; with `C#Cc1cccc(NC(=O)C(=O)NC[C@H](NC(=O)c2ccc(Nc3nc(NC4(c5ccc(Cl)cc5)CC4)nc(OCC(F)(F)F)n3)cc2)C(=O)Cl)c1` [Compound 3746], 0.01 to 10 nM.
The same measure, in the same setting: with `O=C(NC[C@H](NC(=O)c1ccc(Nc2nc(NC3(c4ccc(Cl)cc4)CC3)nc(OCC(F)(F)F)n2)cc1)C(=O)Cl)C(=O)Nc1cccc(C(=O)Nc2ccccc2)c1` [Compound 3747] the figure was 0.01 to 10 nM; with `O=C(NC[C@H](NC(=O)c1ccc(Nc2nc(NC3(c4ccc(Cl)cc4)CC3)nc(OCC(F)(F)F)n2)cc1)C(=O)Cl)C(=O)Nc1cccc(C(=O)c2ccccc2)c1` [Compound 3748], 0.01 to 10 nM.
Consider `O=C(NC[C@H](NC(=O)c1ccc(Nc2nc(NC3(c4ccc(Cl)cc4)CC3)nc(OCC(F)(F)F)n2)cc1)C(=O)O)C(=O)Nc1cccc(OC(F)(F)F)c1` [Compound 3749], for which the 50% effective concentration (EC50) fell in the range of 0.01 to 10 nM.
The same measure, in the same setting: with `O=C(NC[C@H](NC(=O)c1ccc(Nc2nc(NC3(c4ccc(Cl)cc4)CC3)nc(OCC(F)(F)F)n2)cc1)C(=O)O)C(=O)Nc1cccc(Oc2ccccc2)c1` [Compound 3750] the figure was 0.01 to 10 nM; with `O=C(NC[C@H](NC(=O)c1ccc(Nc2nc(NC3(c4ccc(Cl)cc4)CC3)nc(OCC(F)(F)F)n2)cc1)C(=O)O)C(=O)Nc1cccc(-c2ccccc2)c1` [Compound 3751], 0.01 to 10 nM.
Still for that read-out and setting: under `O=C(NC[C@H](NC(=O)c1ccc(Nc2nc(NC3(c4ccc(Cl)cc4)CC3)nc(OCC(F)(F)F)n2)cc1)C(=O)O)C(=O)Nc1cccc(-c2cnco2)c1` [Compound 3752] stands 0.01 to 10 nM; under `O=C(NC[C@H](NC(=O)c1ccc(Nc2nc(NC3(c4ccc(Cl)cc4)CC3)nc(OCC(F)(F)F)n2)cc1)C(=O)O)C(=O)Nc1ccc(Oc2ccc(Cl)cc2Cl)cc1` [Compound 3753], 0.01 to 10 nM; under `CC(C)(C)c1ccc(Oc2ccc(NC(=O)C(=O)NC[C@H](NC(=O)c3ccc(Nc4nc(NC5(c6ccc(Cl)cc6)CC5)nc(OCC(F)(F)F)n4)cc3)C(=O)O)cn2)cc1` [Compound 3754], 0.01 to 10 nM.
Still for that read-out and setting: with `O=C(NC[C@H](NC(=O)c1ccc(Nc2nc(NC3(c4ccc(Cl)cc4)CC3)nc(OCC(F)(F)F)n2)cc1)C(=O)O)C(=O)Nc1ccc(Oc2cccnc2)nc1` [Compound 3755] the figure was 0.01 to 10 nM; with `Cc1nccc(-c2cccc(NC(=O)C(=O)NC[C@H](NC(=O)c3ccc(Nc4nc(NC5(c6ccc(Cl)cc6)CC5)nc(OCC(F)(F)F)n4)cc3)C(=O)O)c2)n1` [Compound 3756], 0.01 to 10 nM.
In the case of `O=C(NC[C@H](NC(=O)c1ccc(Nc2nc(NC3(c4ccc(Cl)cc4)CC3)nc(OCC(F)(F)F)n2)cc1)C(=O)O)C(=O)Nc1cccc(S(=O)(=O)c2ccccc2)c1` [Compound 3757], the EC50 lay in the range of 0.01 to 10 nM.
Same read-out and setting: under `CC(C)c1cccc(NC(=O)C(=O)NC[C@H](NC(=O)c2ccc(Nc3nc(NC4(c5ccc(Cl)cc5)CC4)nc(OCC(F)(F)F)n3)cc2)C(=O)O)c1` [Compound 3758] stands 0.01 to 10 nM; under `O=C(NC[C@H](NC(=O)c1ccc(Nc2nc(NC3(c4ccc(Cl)cc4)CC3)nc(OCC(F)(F)F)n2)cc1)C(=O)O)C(=O)Nc1ccc(N2CCOCC2)nc1` [Compound 3759], 0.01 to 10 nM; under `CC(C)(C)c1cccc(NC(=O)C(=O)NC[C@H](NC(=O)c2ccc(Nc3nc(NC4(c5ccc(Cl)cc5)CC4)nc(OCC(F)(F)F)n3)cc2)C(=O)O)c1` [Compound 3760], 0.01 to 10 nM.
On the same count and under the same terms, under `Nc1ccc(NC(=O)C(=O)NC[C@H](NC(=O)c2ccc(Nc3nc(NC4(c5ccc(Cl)cc5)CC4)nc(OCC(F)(F)F)n3)cc2)C(=O)O)nc1` [Compound 3761] stands 0.01 to 10 nM; under `CC(=O)Nc1ccc(NC(=O)C(=O)NC[C@H](NC(=O)c2ccc(Nc3nc(NC4(c5ccc(Cl)cc5)CC4)nc(OCC(F)(F)F)n3)cc2)C(=O)O)cn1` [Compound 3762], 0.01 to 10 nM; under `CS(=O)(=O)c1cccc(NC(=O)C(=O)NC[C@H](NC(=O)c2ccc(Nc3nc(NC4(c5ccc(Cl)cc5)CC4)nc(OCC(F)(F)F)n3)cc2)C(=O)O)c1` [Compound 3763], 0.01 to 10 nM.
The same measure, in the same setting: under `O=C(NC[C@H](NC(=O)c1ccc(Nc2nc(NC3(c4ccc(Cl)cc4)CC3)nc(OCC(F)(F)F)n2)cc1)C(=O)O)C(=O)Nc1cccc(OC(F)F)c1` [Compound 3764] stands 0.01 to 10 nM.
As for `O=C(NC[C@H](NC(=O)c1ccc(Nc2nc(NC3(c4ccc(Cl)cc4)CC3)nc(OCC(F)(F)F)n2)cc1)C(=O)O)C(=O)Nc1cccc(-c2ncc[nH]2)c1` [Compound 3765], the EC50 fell in the range of 0.01 to 10 nM.
`O=C(NC[C@H](NC(=O)c1ccc(Nc2nc(NC3(c4ccc(Cl)cc4)CC3)nc(OCC(F)(F)F)n2)cc1)C(=O)O)C(=O)Nc1cccc(S(=O)(=O)C(F)(F)F)c1` [Compound 3766]: the EC50 fell in the range of 0.01 to 10 nM.
The same measure, in the same setting: under `O=C(NC[C@H](NC(=O)c1ccc(Nc2nc(NC3(c4ccc(Cl)cc4)CC3)nc(OCC(F)(F)F)n2)cc1)C(=O)O)C(=O)Nc1cccc(-c2ccncc2)c1` [Compound 3768] stands 0.01 to 10 nM; under `O=C(NC[C@H](NC(=O)c1ccc(Nc2nc(NC3(c4ccc(Cl)cc4)CC3)nc(OCC(F)(F)F)n2)cc1)C(=O)O)C(=O)Nc1cccc(CCc2ccccn2)c1` [Compound 3769], 0.01 to 10 nM.
Same read-out and setting: under `O=C(NC[C@H](NC(=O)c1ccc(Nc2nc(NC3(c4ccc(Cl)cc4)CC3)nc(OCC(F)(F)F)n2)cc1)C(=O)O)C(=O)Nc1cccc(Cc2ccccc2)c1` [Compound 3770] stands 0.01 to 10 nM; under `O=C(NC[C@H](NC(=O)c1ccc(Nc2nc(NC3(c4ccc(Cl)cc4)CC3)nc(OCC(F)(F)F)n2)cc1)C(=O)O)C(=O)Nc1ccc(Oc2ccccc2)nc1` [Compound 3771], 0.01 to 10 nM; under `O=C(NC[C@H](NC(=O)c1ccc(Nc2nc(NC3(c4ccc(Cl)cc4)CC3)nc(OCC(F)(F)F)n2)cc1)C(=O)O)C(=O)Nc1cccc(S(=O)(=O)N2CCCCC2)c1` [Compound 3772], 0.01 to 10 nM.
On the same count and under the same terms, with `Cc1nc(-c2cccc(NC(=O)C(=O)NC[C@H](NC(=O)c3ccc(Nc4nc(NC5(c6ccc(Cl)cc6)CC5)nc(OCC(F)(F)F)n4)cc3)C(=O)O)c2)cs1` [Compound 3773] the figure was 0.01 to 10 nM.
With `Cn1cnnc1-c1cccc(NC(=O)C(=O)NC[C@H](NC(=O)c2ccc(Nc3nc(NC4(c5ccc(Cl)cc5)CC4)nc(OCC(F)(F)F)n3)cc2)C(=O)O)c1` [Compound 3774], the concentration for a half-maximal effect (EC50) fell in the range of 0.01 to 10 nM.
Still for that read-out and setting: under `O=C(NC[C@H](NC(=O)c1ccc(Nc2nc(NC3(c4ccc(Cl)cc4)CC3)nc(OCC(F)(F)F)n2)cc1)C(=O)O)C(=O)Nc1cccc(-c2ccc(Cl)cc2)c1` [Compound 3775] stands 0.01 to 10 nM; under `O=C(NC[C@H](NC(=O)c1ccc(Nc2nc(NC3(c4ccc(Cl)cc4)CC3)nc(OCC(F)(F)F)n2)cc1)C(=O)O)C(=O)Nc1ccc(N2CCCC2)nc1` [Compound 3776], 0.01 to 10 nM; under `O=C(NC[C@H](NC(=O)c1ccc(Nc2nc(NC3(c4ccc(Cl)cc4)CC3)nc(OCC(F)(F)F)n2)cc1)C(=O)O)C(=O)Nc1ccc(O)nc1` [Compound 3777], 0.01 to 10 nM.
The same measure, in the same setting: with `O=C(NC[C@H](NC(=O)c1ccc(Nc2nc(NC3(c4ccc(Cl)cc4)CC3)nc(OCC(F)(F)F)n2)cc1)C(=O)O)C(=O)Nc1cccc(CN2CCCC2)c1` [Compound 3778] the figure was 0.01 to 10 nM.
Take `Cc1csc(-c2cccc(NC(=O)C(=O)NC[C@H](NC(=O)c3ccc(Nc4nc(NC5(c6ccc(Cl)cc6)CC5)nc(OCC(F)(F)F)n4)cc3)C(=O)Cl)c2)n1` [Compound 3780]: the EC50 was 0.01 to 10 nM.
The same measure, in the same setting: under `O=C(NC[C@H](NC(=O)c1ccc(Nc2nc(NC3(c4ccc(Cl)cc4)CC3)nc(OCC(F)(F)F)n2)cc1)C(=O)Cl)C(=O)Nc1cccc(Oc2ccccn2)c1` [Compound 3781] stands 0.01 to 10 nM.
On the same count and under the same terms, with `CNS(=O)(=O)c1cccc(NC(=O)C(=O)NC[C@H](NC(=O)c2ccc(Nc3nc(NC4(c5ccc(Cl)cc5)CC4)nc(OCC(F)(F)F)n3)cc2)C(=O)Cl)c1` [Compound 3782] the figure was 0.01 to 10 nM; with `O=C(NC[C@H](NC(=O)c1ccc(Nc2nc(NC3(c4ccc(Cl)cc4)CC3)nc(OCC(F)(F)F)n2)cc1)C(=O)Cl)C(=O)Nc1cccc(-c2cccnc2)c1` [Compound 3783], 0.01 to 10 nM; with `O=C(NC[C@H](NC(=O)c1ccc(Nc2nc(NC3(c4ccc(Cl)cc4)CC3)nc(OCC(F)(F)F)n2)cc1)C(=O)Cl)C(=O)Nc1cccc(-n2cnnc2)c1` [Compound 3784], 0.01 to 10 nM.
On the same count and under the same terms, with `Cc1nc(-c2cccc(NC(=O)C(=O)NC[C@H](NC(=O)c3ccc(Nc4nc(NC5(c6ccc(Cl)cc6)CC5)nc(OCC(F)(F)F)n4)cc3)C(=O)Cl)c2)no1` [Compound 3785] the figure was 0.01 to 10 nM.
For `Cn1nnnc1-c1cccc(NC(=O)C(=O)NC[C@H](NC(=O)c2ccc(Nc3nc(NC4(c5ccc(Cl)cc5)CC4)nc(OCC(F)(F)F)n3)cc2)C(=O)Cl)c1` [Compound 3786], the EC50 fell in the range of 0.01 to 10 nM.
Still for that read-out and setting: under `O=C(NC[C@H](NC(=O)c1ccc(Nc2nc(NC3(c4ccc(Cl)cc4)CC3)nc(OCC(F)(F)F)n2)cc1)C(=O)Cl)C(=O)Nc1cccc(-c2c[nH]cn2)c1` [Compound 3787] stands 0.01 to 10 nM.
Still for that read-out and setting: under `CCN(CC)CCOc1cccc(NC(=O)C(=O)NC[C@H](NC(=O)c2ccc(Nc3nc(NC4(c5ccc(Cl)cc5)CC4)nc(OCC(F)(F)F)n3)cc2)C(=O)Cl)c1` [Compound 3788] stands 0.01 to 10 nM.
The same measure, in the same setting: under `O=C(NC[C@H](NC(=O)c1ccc(Nc2nc(NC3(c4ccc(Cl)cc4)CC3)nc(OCC(F)(F)F)n2)cc1)C(=O)Cl)C(=O)Nc1cccc(-n2ccnc2)c1` [Compound 3789] stands 0.01 to 10 nM.

(Values after patent US8916702B2 (priority 2012, dated 2014).)
